Where a name gives a salt, the structure may show the parent alone. Read-outs that look alike come from different tables or passages of the source.
How the values were obtained:
[1] = test system: M21 human melanoma cells; assay: M21 melanoma cell adhesion assay (αvβ3-dependent adhesion to human fibrinogen-coated plates); type: cell-based; settings: read-out: M21 Melanoma Cells IC50
Procedure: M21 MELANOMA CELL ADHESION ASSASY
This assay involves an αvβ3-dependent adhesion of M21 human melanoma cells to human fibrinogen-coated plastic tissue culture dishes.
Fibrinogen was purified from human plasma. Fibronectin and plasminogen were eliminated from the preparation by passing the sample over gelatin-sepharose 4B and lysine-sepharose 4B resins, respectively. The fibrinogen is diluted to 10 μg/mL in coating buffer ([…] Tris-HCl, 150 mM NaCl, pH 7.4). 100 μL of diluted fibrinogen is added to each well of a 96-well Immulon 2 microtiter plate (Dynatech; Chantilly, Va.) and allowed to coat overnight at 4° C. Plates are blocked with 1% BSA (Miles/Pentex; Kankakee, Ill.) in adhesion buffer (Hank's balanced salt solution without Ca^++ or Mg^++ [HBSS−−], 50 mM Hepes, 1 mg/mL BSA, pH 7.4) for 1 hour at 37° C.
M21 human melanoma cells were provided by Dr. J. Smith, La Jolla Cancer Research Institute. M21 cells are harvested from tissue culture flasks by washing with HBSS−− and adding cell dissociation solution (Sigma) and incubating for 5 minutes at 37° C. Harvested cells are washed 3 times with adhesion assay buffer containing 200 μM Mn^++. Cells are counted and suspended to a density of 2×10^6/mL in adhesion assay buffer containing 200 μM Mn^++. M21 cells are pre-incubated with antagonists of αvβ3 for 30 minutes at room temperature. Following the pre-incubation, the solutions containing a mixture of cells and antagonists are added to each well of the microtiter plate and allowed to bind for 30 minutes at 37° C.
Following adhesion, plates are gently washed 3 times with 200 μL of wash buffer (50 mM Tris-HCl, 150 mM NaCl, pH 7.4) using large bore pipet tips. Plates are briefly blotted dry and 100 μL of cell lysis buffer (50 mM sodium acetate, pH 5.0, 0.5% Triton X-100, 0.3 mg/mL p-nitrophenyl phosphate [Sigma] is added to each well. Plates are incubated for 60 minutes at 37° C. and 50 μL of 1N NaOH is added to stop the reaction. The absorbance of the wells at […] is read using an automatic plate reader.

[2] = target: T1, Human vitronectin receptor (αvβ3) (Homo sapiens, UniProt P05106+P06756); assay: Vitronectin adhesion assay (solid phase receptor assay, competition with biotinylated vitronectin); type: binding; settings: read-out: AvB3 IC50
T1 construct: Human vitronectin receptor (αvβ3) was purified from human placenta; from tissue; host or cells: human placenta
Procedure, shortened: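 Purified human αvβ3 coated overnight at 4 °C in TBS with 1.0 mM Ca++, Mg++, Mn++, pH 7.4; compounds (top final 1.0×10^−4 M) competed with 1 nM biotinylated vitronectin for 2 h at room temperature. Bound ligand detected by HRP anti-biotin/OPD at A450; values normalized to no-competitor controls, four-parameter curve fit.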

[3] = test system: platelet rich plasma; assay: Human platelet rich plasma assay (ADP induced platelet aggregation); type: cell-based; settings: Homo sapiens, Platelet, ADP induced platelet aggregation in human platelet rich plasma; read-out: Human PRP
Procedure, shortened: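 Citrated platelet-rich plasma from aspirin-free healthy human donors was stirred at 37 °C and preincubated with compound for 1 min. Aggregation was then triggered with ADP (added as a 200 uM solution) and recorded photometrically for 3 min. Dose–response curves were built from % inhibition of the maximal saline-control response.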

Row | SMILES | IC50 ([1]; Homo sapiens, M21) [nM] | IC50 [2] [nM] | IC50 [3] [nM] | IC50 ([1]; hydrochloride salt) [nM]
1 | O=C(O)CC(NC(=O)CNC(=O)c1cccc(NC2=NCCC2)c1)c1cccnc1 (stereo not drawn) [Example 17, β-[[2-[[[3-[(3,4-dihydro-2H-pyrrol-5-yl)amino]phenyl]carbonyl]amino]acetyl]amino]pyridine-3-propanoic acid, bis(trifluoroacetate)salt] | 3.64 | 2.66 | > 200000 | –
2 | N=C(N)Nc1cccc(C(=O)NCC(=O)N[C@@H](CC(=O)O)CS(=O)(=O)c2ccccc2C(=O)O)c1 [Example 71, 2-[[2S-[[2-[[[3-[(aminoiminomethyl)amino]phenyl]carbonyl]amino]acetyl]amino]-2-(carboxymethyl)ethyl]sulfonyl]benzoic acid, TFA salt] | 1040 | 20.4 | > 200000 | –
3 | C#C[C@@H](CC(=O)O)NC(=O)CNC(=O)c1cccc(NC(=N)N)c1 [Example 43, 3R-[[2-[[[(3-[(aminoiminomethyl)amino]phenyl]carbonyl]amino]acetyl]amino]-4-pentynoic acid, hydrochloride salt] | – | 28.3 | > 200000 | 188
4 | Cc1ccc(S(=O)(=O)CCC(CC(=O)O)NC(=O)CNC(=O)c2cccc(NC(=N)N)c2)cc1 (racemic) [Example 67, (±)3-[[2-[[[3-[(aminoiminomethyl)amino]phenyl]carbonyl]amino]acetyl]amino]-5-[(4-methylphenyl)sulfonyl]pentanoic acid, trifluoroacetate salt] | 4.08 | 2.05 | > 200000 | –
5 | Cc1ccc(C(=O)NCC(=O)NC(CC(=O)O)c2cccnc2)cc1NC(=N)N (racemic) [Example 83, (±)β-[[2-[[[3-[(aminoiminomethyl)amino]-4-methylphenyl]carbonyl]amino]acetyl]amino]pyridine-3-propanoic acid, bis(trifluoroacetate)salt] | 11 | 3.39 | > 200000 | –
6 | NC(=S)Nc1cccc(C(=O)NCC(=O)NC(CC(=O)O)c2cccnc2)c1 (stereo not drawn) [Example 114, β-[[2-[[[3-[(aminothioxomethyl)amino]phenyl]carbonyl]amino]acetyl]amino]pyridine-3-propanoic acid, trifluoroacetate salt] | 200 | 3.26 | > 200000 | –
7 | N=C(N)Nc1cccc(C(=O)NCC(=O)NC(CC(=O)O)c2cc(C(F)(F)F)cc(C(F)(F)F)c2)c1 (racemic) [Example 36, (±)β-[[2-[[[3-[(aminoiminomethyl)amino]phenyl]carbonyl]amino]acetyl]amino]-3,5-bis(trifluoromethyl)benzenepropanoic acid, trifluoroacetate salt] | 143 | 14.6 | > 200000 | –
8 | N=C(N)Nc1cccc(C(=O)NCC(=O)NC(CC(=O)O)c2ccsc2)c1 (racemic) [Example 59, (±)β-[[2-[[[3-[(aminoiminomethyl)amino]phenyl]carbonyl]amino]acetyl]amino]thiophene-3-propanoic acid, trifluoroacetate salt] | 24.3 | 2.35 | > 200000 | –
9 | N=C(N)Nc1cccc(C(=O)NCC(=O)NC(CC(=O)O)c2ccccc2)c1 (racemic) [Example 4, (±)β-[[2-[[[3-[(aminoiminomethyl)amino]phenyl]carbonyl]amino]acetyl]amino]benzene-propanoic acid, trifluoroacetate salt] | 3.3 | 3.17 | > 200000 | –
10 | Cc1ccc(O)c(C(CC(=O)O)NC(=O)CNC(=O)c2cccc(NC(=N)N)c2)c1 (racemic) [Example 88, (±)β-[[2-[[[3-[(aminoiminomethyl)amino]phenyl]carbonyl]amino]acetyl]amino]-2-hydroxy-5-methylbenzenepropanoic acid, trifluoroacetate salt] | 52.3 | 8.44 | > 200000 | –
11 | N=C(N)Nc1cccc(C(=O)NCC(=O)NC(CC(=O)O)c2ccc3ccccc3c2)c1 (racemic) [Example 56, (±)β-[[2-[[[3-[(aminoiminomethyl)amino]phenyl]carbonyl]amino]acetyl]amino]naphthalene-2-propanoic acid, trifluoroacetate salt] | 6.87 | 3.12 | > 200000 | –
12 | N=C(N)Nc1cccc(C(=O)NCC(=O)NC(CC(=O)O)c2cccs2)c1 (racemic) [Example 61, (±)β-[[2-[[[3-[(aminoiminomethyl)amino]phenyl]carbonyl]amino]acetyl]amino]thiophene-2-propanoic acid, trifluoroacetate salt] | 228 | 1.76 | > 200000 | –
13 | O=C(O)CC(NC(=O)CNC(=O)c1cccc(NC2=NCCCCC2)c1)c1ccccc1 (racemic) [Example 15, (±)β-[[2-[[[3-[(3,4,5,6-tetrahydro-2H-azepin-7-yl)amino]phenyl]carbonyl]amino]acetyl]amino]benzenepropanoic acid, trifluoroacetate salt] | 202 | 10.2 | > 200000 | –

Stronger by IC50 [2], values ahead:

Row | IC50 ([1]; Homo sapiens, M21) [nM] | IC50 [2] [nM] | IC50 [3] [nM] | IC50 ([1]; hydrochloride salt) [nM] | SMILES
14 | 5.42 | 1.62 | > 200000 | – | O=C(O)CC(NC(=O)CNC(=O)c1cccc(NC2=NCCCCC2)c1)c1ccc2c(c1)OCO2 (racemic) [Example 14, (±)β-[[2-[[[3-[(3,4,5,6-tetrahydro-2H-azepin-7-yl)amino]phenyl]carbonyl]amino]acetyl]amino]-1,3-benzodioxole-5-propanoic acid, TFA salt]
15 | 9.32 | 1.1 | > 200000 | – | O=C(O)CC(NC(=O)CNC(=O)c1cccc(NC2=NCCCCC2)c1)c1cccnc1 (racemic) [Example 12, (±)β-[[2-[[[3-[(3,4,5,6-tetrahydro-2H-azepin-7-yl)amino]phenyl]carbonyl]amino]acetyl]amino]pyridine-3-propanoic acid, bis(trifluoroacetate)salt]
16 | 1.82 | 0.92 | > 200000 | – | O=C(O)CC(NC(=O)CNC(=O)c1cccc(NC2=NCCN2)c1)c1cccnc1 (racemic) [Example 10, (±)β-[[2-[[[3-[(4,5-dihydro-1H-imidazol-2-yl)amino]phenyl]carbonyl]amino]acetyl]amino]pyridine-3-propanoic acid, bis(trifluoroacetate)salt]
17 | 1.18 | 0.86 | > 200000 | – | O=C(O)CC(NC(=O)CNC(=O)c1cccc(NC(=O)NCc2ccccc2)c1)c1cccnc1 (racemic) [Example 47, (±)β-[[2-[[[3-[[[(phenylmethyl)amino]carbonyl]amino]phenyl]carbonyl]amino]acetyl]amino]pyridine-3-propanoic acid, hydrochloride salt]
18 | 0.74 | 0.73 | > 200000 | – | N=C(N)Nc1cccc(C(=O)NCC(=O)NC(CCS(=O)(=O)c2ccccc2C(=O)O)CC(=O)O)c1 (racemic) [60(C), (±)2-[3-[[2-[[[3-[(aminoiminomethyl)amino]phenyl]carbonyl]amino]acetyl]amino]-4-carboxybutyl]sulfonyl]benzoic acid, trifluoroacetate]
19 | – | 0.69 | 167000 | 2.54 | C#C[C@H](CC(=O)O)NC(=O)CNC(=O)c1cccc(NC(=N)N)c1 [Example 45, 3S-[[2-[[[3-[(aminoiminomethyl)amino]phenyl]carbonyl]amino]acetyl]amino]-4-pentynoic acid, hydrochloride salt]

Reference: patent US6831199B1, “Pyrimidine compounds and derivatives thereof” (G. D. Searle & Co., priority 1995, dated 2004)
